Measurements: ChEMBL document CHEMBL6177997, “Design, Synthesis, and Evaluation of Novel ROCK Inhibitors for Glaucoma Treatment: Insights into In Vitro and In Vivo Efficacy and Safety” (J Med Chem, 2025)
pIC50: −log10 of the molar value. The source made the active and inactive calls. The calls are words filed in the database; no cut-off is given here.

Columns and labels:
Oryctolagus cuniculus [1] = species: Oryctolagus cuniculus; experiment: Anti-glaucoma activity in methylcellulose-induced acute intraocular hypertensive rabbit model assessed as reduction in intraocular pressure at 0.1 %, TOP measured at 4 hrs; format: functional
[2] = Induction of apoptosis in H2O2-induced human HTM cells at 1 uM pretreated with compound for 1 hr followed by H2O2 induction and measured after 2 hrs by Annexin V AF647/PI staining based flow cytometry analysis (reference value: 13.47%); format: functional; conditions: time 3 hrs
HTM [3] = experiment: Inhibition of TGF-beta2 induced collagen 1A expression in human HTM cells at 1 uM pretreated with compound for 2 hrs followed by TGF-beta2 induction and measured after 24 hrs; format: functional, cell-based; conditions: time 26.0 hrs
HTM [4] = experiment: Inhibition of H2O2-induced ROS production in human HTM cells assessed as decrease in green fluorescence at 1 uM preincubated for 1 hrs followed by H2O2 induction for 2 hrs and measured after 30 mins by DCFH-DA based fluorescence microscopic analysis; format: functional, cell-based; conditions: time 3.5 hrs
HTM [5] = experiment: Induction of morphological changes in human HTM cells assessed as appearance of cell contraction at 15 uM incubated for 10 hrs by light microscopic analysis; format: functional, cell-based
Oryctolagus cuniculus [6] = species: Oryctolagus cuniculus; experiment: Anti-glaucoma activity in methylcellulose-induced acute intraocular hypertensive rabbit model assessed as reduction in intraocular pressure at 0.1 %, TOP measured at 8 hrs; format: functional
[7] = molecular target: T1, MAP kinase-interacting serine/threonine-protein kinase 1 (Homo sapiens, UniProt Q9BUB5); experiment: Inhibition of MNK1 (unknown origin) preincubated for 10 mins followed by substrate addition and measured after 60 mins by ADP-glo kinase assay
Target sequence in this assay (Q9BUB5 whole entry): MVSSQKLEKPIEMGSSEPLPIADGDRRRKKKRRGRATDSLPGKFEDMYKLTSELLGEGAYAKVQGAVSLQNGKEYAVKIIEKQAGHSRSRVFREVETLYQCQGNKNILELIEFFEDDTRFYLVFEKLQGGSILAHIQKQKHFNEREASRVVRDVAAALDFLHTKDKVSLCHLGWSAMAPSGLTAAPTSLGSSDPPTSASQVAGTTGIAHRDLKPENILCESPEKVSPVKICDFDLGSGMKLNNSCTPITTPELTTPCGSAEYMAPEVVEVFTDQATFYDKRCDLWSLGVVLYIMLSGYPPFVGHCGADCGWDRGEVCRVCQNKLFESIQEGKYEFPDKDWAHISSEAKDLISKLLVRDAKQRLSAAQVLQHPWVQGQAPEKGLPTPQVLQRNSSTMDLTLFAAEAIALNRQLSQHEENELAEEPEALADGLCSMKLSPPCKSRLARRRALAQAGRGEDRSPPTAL

HTM [8] = experiment: Anti-inflammatory activity against human HTM cells assessed as inhibition of H2O2-induced NF-kappaB secretion; format: functional, cell-based
HTM [9] = experiment: Anti-inflammatory activity against human HTM cells assessed as inhibition of H2O2-induced i-NOS secretion; format: functional, cell-based
HTM [10] = experiment: Inhibition of TGF-beta2 induced alpha-SMA expression in human HTM cells at 1 uM pretreated with compound for 2 hrs followed by TGF-beta2 induction and measured after 24 hrs; format: functional, cell-based; conditions: time 26.0 hrs
[11] = molecular target: T2, Rho-associated protein kinase 2 (Homo sapiens, UniProt O75116); experiment: Inhibition of ROCK2 (unknown origin) relative to control; conditions: concentration not given here
Target sequence in this assay (O75116 whole entry, looked up): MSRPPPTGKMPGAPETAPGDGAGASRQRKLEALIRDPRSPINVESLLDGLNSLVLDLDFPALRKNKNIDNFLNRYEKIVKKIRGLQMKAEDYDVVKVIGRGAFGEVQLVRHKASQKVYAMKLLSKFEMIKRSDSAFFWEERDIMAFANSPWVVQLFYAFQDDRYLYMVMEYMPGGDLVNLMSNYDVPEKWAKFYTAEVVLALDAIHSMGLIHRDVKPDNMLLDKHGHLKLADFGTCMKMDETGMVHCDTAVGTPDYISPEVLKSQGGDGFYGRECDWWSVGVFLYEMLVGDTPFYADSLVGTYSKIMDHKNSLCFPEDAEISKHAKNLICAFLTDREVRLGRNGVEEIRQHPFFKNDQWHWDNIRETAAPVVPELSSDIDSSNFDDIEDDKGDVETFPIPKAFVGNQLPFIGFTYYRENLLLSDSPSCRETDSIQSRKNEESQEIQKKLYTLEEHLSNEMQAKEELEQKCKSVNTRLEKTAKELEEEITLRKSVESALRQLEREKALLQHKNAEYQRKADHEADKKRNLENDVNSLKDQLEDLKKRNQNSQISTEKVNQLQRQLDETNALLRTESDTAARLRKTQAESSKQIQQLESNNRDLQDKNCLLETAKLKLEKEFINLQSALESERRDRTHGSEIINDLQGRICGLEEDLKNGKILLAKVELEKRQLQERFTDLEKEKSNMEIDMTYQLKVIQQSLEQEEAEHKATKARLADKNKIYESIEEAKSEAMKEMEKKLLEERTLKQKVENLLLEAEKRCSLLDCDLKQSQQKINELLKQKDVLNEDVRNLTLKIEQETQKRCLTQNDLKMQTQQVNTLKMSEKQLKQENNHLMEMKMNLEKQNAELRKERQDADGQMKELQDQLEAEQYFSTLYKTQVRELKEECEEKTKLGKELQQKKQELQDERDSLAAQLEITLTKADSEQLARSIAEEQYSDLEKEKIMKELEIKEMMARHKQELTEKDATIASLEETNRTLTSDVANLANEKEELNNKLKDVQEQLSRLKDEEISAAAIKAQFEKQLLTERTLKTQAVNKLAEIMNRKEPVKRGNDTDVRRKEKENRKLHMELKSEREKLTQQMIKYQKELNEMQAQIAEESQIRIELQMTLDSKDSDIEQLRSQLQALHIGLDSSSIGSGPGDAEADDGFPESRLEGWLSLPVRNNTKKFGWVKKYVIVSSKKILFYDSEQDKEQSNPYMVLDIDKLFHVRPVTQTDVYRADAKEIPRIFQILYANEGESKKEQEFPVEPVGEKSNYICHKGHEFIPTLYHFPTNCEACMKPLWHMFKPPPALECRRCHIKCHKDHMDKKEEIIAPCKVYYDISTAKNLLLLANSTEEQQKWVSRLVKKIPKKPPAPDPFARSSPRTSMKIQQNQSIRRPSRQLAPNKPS

HTM [12] = experiment: Induction of morphological changes in human HTM cells assessed as appearance of cell contraction at 45 uM incubated for 10 hrs by light microscopic analysis; format: functional, cell-based
HTM [13] = experiment: Inhibition of cell migration in human HTM cells at 1 uM incubated for 24 to 48 hrs by wound healing assay; format: functional, cell-based; conditions: time 24-48 hrs
[14] = Toxicity in rabbit assessed as appearance of conjunctival congestion by measuring ocular irritation score at 0.1 % TOP administration on left eye measured at 7 days by draize eye irritation test; format: tissue-based, Oryctolagus cuniculus; conditions: in vivo, topical_or_ocular, 168 h, time 7 day
[15] = molecular target: T3, Rho-associated protein kinase 1 (Homo sapiens, UniProt Q13464); experiment: Inhibition of ROCK1 (unknown origin) incubated for 40 mins in presence of ATP by ADP-glo assay
Target sequence in this assay (Q13464 whole entry): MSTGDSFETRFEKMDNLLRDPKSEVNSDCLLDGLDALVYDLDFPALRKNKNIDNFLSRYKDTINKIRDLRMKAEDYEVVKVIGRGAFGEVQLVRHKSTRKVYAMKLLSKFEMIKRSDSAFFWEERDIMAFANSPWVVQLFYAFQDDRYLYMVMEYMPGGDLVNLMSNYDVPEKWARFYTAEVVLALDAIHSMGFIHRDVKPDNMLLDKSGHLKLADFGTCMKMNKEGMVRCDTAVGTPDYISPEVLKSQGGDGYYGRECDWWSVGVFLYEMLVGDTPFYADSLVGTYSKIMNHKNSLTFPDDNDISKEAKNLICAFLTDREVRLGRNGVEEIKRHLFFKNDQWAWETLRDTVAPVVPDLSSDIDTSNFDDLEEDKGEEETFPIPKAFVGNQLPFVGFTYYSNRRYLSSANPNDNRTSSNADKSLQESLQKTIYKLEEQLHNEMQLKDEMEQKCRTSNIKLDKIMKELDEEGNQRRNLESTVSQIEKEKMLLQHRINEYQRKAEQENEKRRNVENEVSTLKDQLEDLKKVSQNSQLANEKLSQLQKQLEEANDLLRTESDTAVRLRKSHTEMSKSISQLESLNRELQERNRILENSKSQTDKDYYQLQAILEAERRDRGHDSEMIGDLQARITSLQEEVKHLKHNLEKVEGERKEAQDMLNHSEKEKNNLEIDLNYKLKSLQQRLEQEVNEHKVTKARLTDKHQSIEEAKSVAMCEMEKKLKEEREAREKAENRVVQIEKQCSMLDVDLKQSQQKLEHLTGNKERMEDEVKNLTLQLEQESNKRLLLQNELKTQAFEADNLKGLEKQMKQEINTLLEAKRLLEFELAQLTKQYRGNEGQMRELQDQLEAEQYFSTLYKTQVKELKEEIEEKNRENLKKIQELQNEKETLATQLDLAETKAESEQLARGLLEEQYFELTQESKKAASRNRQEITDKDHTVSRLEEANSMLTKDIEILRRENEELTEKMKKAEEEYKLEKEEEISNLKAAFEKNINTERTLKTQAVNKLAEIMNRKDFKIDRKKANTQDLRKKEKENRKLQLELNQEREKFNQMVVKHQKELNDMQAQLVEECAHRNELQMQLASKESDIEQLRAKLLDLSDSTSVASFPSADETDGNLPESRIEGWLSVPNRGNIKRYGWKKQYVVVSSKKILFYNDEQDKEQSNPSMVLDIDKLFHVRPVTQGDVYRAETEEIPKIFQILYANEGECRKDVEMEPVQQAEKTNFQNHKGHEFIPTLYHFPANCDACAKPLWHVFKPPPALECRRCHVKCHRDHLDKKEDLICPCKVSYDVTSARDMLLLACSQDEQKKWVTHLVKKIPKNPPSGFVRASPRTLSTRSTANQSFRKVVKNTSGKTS

HTM [16] = experiment: Inhibition of paxillin expression in human HTM cells at 0.02 to 5 uM; format: functional, cell-based; conditions: dose 0.02-5 µM
Oryctolagus cuniculus [17] = species: Oryctolagus cuniculus; experiment: Anti-glaucoma activity in methylcellulose-induced acute intraocular hypertensive rabbit model assessed as reduction in intraocular pressure at 0.1 %, TOP measured at 2 hrs; format: functional
HTM [18] = experiment: Induction of morphological changes in human HTM cells at 3 uM incubated for 10 hrs by light microscopic analysis; format: functional, cell-based
[19] = molecular target: T2, Rho-associated protein kinase 2; experiment: Inhibition of ROCK2 (unknown origin) incubated for 40 mins in presence of ATP by ADP-glo assay
Target sequence in this assay (O75116 whole entry): as the sequence (O75116 whole entry, looked up) above

HTM [20] = experiment: Anti-inflammatory activity against human HTM cells assessed as inhibition of H2O2-induced IL-6 secretion; format: functional, cell-based
Mitochondrial membrane = experiment: Induction of mitochondrial membrane potential in human HTM cells at 1 uM incubated for 24 hrs by JC-1 staining based flow cytometry analysis
[21] = Cytotoxicity against human HTM cells assessed as inhibition of cell proliferation at 45 uM incubated for 24 hrs by MTT assay; format: toxicity, cell-based
HTM [22] = experiment: Induction of F-actin depolymerization in human HTM cells at 5 uM incubated for 4 hrs by rhodamine-phalloidin staining based analysis; format: cell-based
HTM [23] = experiment: Inhibition of paxillin expression in human HTM cells at 5 uM; format: functional, cell-based
[24] = Toxicity in rabbit assessed as appearance of conjunctival congestion by measuring ocular irritation score at 0.1 % TOP administration on left eye measured on day 4 by draize eye irritation test; format: tissue-based, Oryctolagus cuniculus; conditions: in vivo, topical_or_ocular, 96 h, time 4 day
[25] = Cytotoxicity against human HTM cells assessed as reduction in cell viability at 15 uM incubated for 24 hrs by MTT assay relative to control; format: toxicity, cell-based
[26] = Toxicity in rabbit assessed as appearance of conjunctival congestion by measuring ocular irritation score at 0.1 % TOP administration on left eye measured after 7 days by draize eye irritation test; format: tissue-based, Oryctolagus cuniculus; conditions: in vivo, topical_or_ocular, 168 h, time 7 day
HTM [27] = experiment: Induction of morphological changes in human HTM cells assessed as appearance of rounded cells at 15 uM incubated for 10 hrs by light microscopic analysis; format: functional, cell-based
HTM [28] = experiment: Induction of morphological changes in human HTM cells assessed as appearance of rounded cells at 45 uM incubated for 10 hrs by light microscopic analysis; format: functional, cell-based
Oryctolagus cuniculus [29] = species: Oryctolagus cuniculus; experiment: Anti-glaucoma activity in methylcellulose-induced high acute intraocular hypertensive rabbit model assessed as reduction in intraocular pressure at 0.1 %, TOP measured at 4 hrs; format: functional
[30] = Cytotoxicity against human HTM cells assessed as reduction in cell viability at 45 uM incubated for 24 hrs by MTT assay relative to control; format: toxicity, cell-based
[31] = molecular target: MAP kinase-interacting serine/threonine-protein kinase 2 (Homo sapiens) (UniProt Q9HBH9); experiment: Inhibition of MNK2 (unknown origin) at 5 uM preincubated for 10 mins followed by substrate addition and measured after 60 mins by ADP-glo kinase assay relative to control; conditions: time 70.0 min
MAP kinase-interacting serine/threonine-protein kinase 2 (Homo sapiens), sequence (Q9HBH9 whole entry, looked up): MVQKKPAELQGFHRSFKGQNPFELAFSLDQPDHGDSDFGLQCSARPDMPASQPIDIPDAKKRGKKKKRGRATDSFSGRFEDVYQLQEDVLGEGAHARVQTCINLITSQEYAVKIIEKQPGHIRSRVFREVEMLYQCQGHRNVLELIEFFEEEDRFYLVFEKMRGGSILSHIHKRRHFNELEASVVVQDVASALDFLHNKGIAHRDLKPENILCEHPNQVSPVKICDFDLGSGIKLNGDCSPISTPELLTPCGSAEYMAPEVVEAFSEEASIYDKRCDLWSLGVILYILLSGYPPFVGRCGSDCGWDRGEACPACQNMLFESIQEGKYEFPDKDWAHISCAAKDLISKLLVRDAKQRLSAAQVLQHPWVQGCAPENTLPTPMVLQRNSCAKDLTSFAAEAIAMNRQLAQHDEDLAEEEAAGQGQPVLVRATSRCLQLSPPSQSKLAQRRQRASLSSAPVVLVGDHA

[32] = molecular target: T1, MAP kinase-interacting serine/threonine-protein kinase 1; experiment: Inhibition of human MNK1 using magnesium acetate as substrate at 1 uM measured after 120 mins in presence of [gamma33P]ATP by scintillation counting method relative to control
Target sequence in this assay (Q9BUB5 whole entry, looked up): as the sequence (Q9BUB5 whole entry) above

[33] = molecular target: Mitogen-activated protein kinase kinase kinase kinase 4 (Homo sapiens) (UniProt O95819); experiment: Inhibition of human HGK using magnesium acetate as substrate at 1 uM measured after 120 mins in presence of [gamma33P]ATP by scintillation counting method relative to control
[34] = molecular target: T2, Rho-associated protein kinase 2; experiment: Inhibition of human ROCK2 using magnesium acetate as substrate at 1 uM measured after 120 mins in presence of [gamma33P]ATP by scintillation counting method relative to control
Target sequence in this assay (O75116 whole entry, looked up): as the sequence (O75116 whole entry, looked up) above

HTM [35] = experiment: Induction of F-actin depolymerization in human HTM cells at 1 to 5 uM incubated for 4 hrs by rhodamine-phalloidin staining based analysis; format: cell-based; conditions: dose 1-5 µM
Homo sapiens [36] = species: Homo sapiens; experiment: Inhibition of human PKA using magnesium acetate as substrate at 1 uM measured after 120 mins in presence of [gamma33P]ATP by scintillation counting method relative to control
[37] = molecular target: MAP kinase-interacting serine/threonine-protein kinase 2 (Homo sapiens) (UniProt Q9HBH9); experiment: Inhibition of human MNK2 using magnesium acetate as substrate at 1 uM measured after 120 mins in presence of [gamma33P]ATP by scintillation counting method relative to control
Homo sapiens [38] = species: Homo sapiens; experiment: Inhibition of human PKB using magnesium acetate as substrate at 1 uM measured after 120 mins in presence of [gamma33P]ATP by scintillation counting method relative to control
[39] = molecular target: T3, Rho-associated protein kinase 1; experiment: Inhibition of human ROCK1 using magnesium acetate as substrate at 1 uM measured after 120 mins in presence of [gamma33P]ATP by scintillation counting method relative to control
[40] = molecular target: T1, MAP kinase-interacting serine/threonine-protein kinase 1; experiment: Inhibition of MNK1 (unknown origin) at 5 uM preincubated for 10 mins followed by substrate addition and measured after 60 mins by ADP-glo kinase assay relative to control; conditions: time 70.0 min
Target sequence in this assay (Q9BUB5 whole entry, looked up): as the sequence (Q9BUB5 whole entry) above

[41] = molecular target: Serine/threonine-protein kinase SIK2 (Homo sapiens) (UniProt Q9H0K1); experiment: Inhibition of human QIK using magnesium acetate as substrate at 1 uM measured after 120 mins in presence of [gamma33P]ATP by scintillation counting method relative to control
Serine/threonine-protein kinase SIK2 (Homo sapiens), sequence (Q9H0K1 whole entry, looked up): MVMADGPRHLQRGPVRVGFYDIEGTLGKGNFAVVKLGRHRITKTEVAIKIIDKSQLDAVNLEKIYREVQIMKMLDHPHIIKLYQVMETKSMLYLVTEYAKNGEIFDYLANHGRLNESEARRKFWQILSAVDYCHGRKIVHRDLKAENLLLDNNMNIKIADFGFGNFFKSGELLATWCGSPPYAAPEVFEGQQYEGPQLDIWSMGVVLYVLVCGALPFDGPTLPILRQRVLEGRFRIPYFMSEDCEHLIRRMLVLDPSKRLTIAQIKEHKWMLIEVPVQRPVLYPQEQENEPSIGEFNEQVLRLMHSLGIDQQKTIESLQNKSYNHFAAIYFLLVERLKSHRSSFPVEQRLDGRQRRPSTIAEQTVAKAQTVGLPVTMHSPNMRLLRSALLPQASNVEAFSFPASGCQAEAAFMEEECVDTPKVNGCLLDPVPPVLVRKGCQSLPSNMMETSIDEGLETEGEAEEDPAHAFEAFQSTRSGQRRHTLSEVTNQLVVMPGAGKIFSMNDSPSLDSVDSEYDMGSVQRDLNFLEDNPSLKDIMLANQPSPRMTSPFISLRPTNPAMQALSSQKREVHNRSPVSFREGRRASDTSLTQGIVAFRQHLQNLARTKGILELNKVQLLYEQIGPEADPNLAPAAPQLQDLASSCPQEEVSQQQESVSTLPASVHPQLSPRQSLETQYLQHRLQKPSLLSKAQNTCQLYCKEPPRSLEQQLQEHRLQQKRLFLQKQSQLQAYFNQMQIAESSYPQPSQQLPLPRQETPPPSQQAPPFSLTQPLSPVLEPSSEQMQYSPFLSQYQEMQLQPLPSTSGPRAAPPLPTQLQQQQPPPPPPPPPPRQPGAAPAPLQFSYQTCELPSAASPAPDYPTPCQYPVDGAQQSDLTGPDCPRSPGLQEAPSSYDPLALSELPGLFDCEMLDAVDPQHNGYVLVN

HTM [42] = experiment: Induction of morphological changes in human HTM cells at 0.1 uM incubated for 10 hrs in presence of eFT508 by light microscopic analysis; format: functional, cell-based
[43] = molecular target: Protein kinase C (PKC) (Homo sapiens) (UniProt O94806+P41743+P17252+P05129+Q05655+P05771+Q05513+Q02156+P24723+Q15139+Q04759); experiment: Inhibition of human PKC using magnesium acetate as substrate at 1 uM measured after 120 mins in presence of [gamma33P]ATP by scintillation counting method relative to control; format: protein assay

pIC50 [15] | pIC50 [19] | Activity (Mitochondrial membrane) | SMILES | Activity (Oryctolagus cuniculus [1]) [mmHg] | Activity [2] [%] | inhibition (HTM [3]) | inhibition (HTM [4]) | Activity (HTM [5]) | Activity (Oryctolagus cuniculus [6]) [mmHg] | inhibition (HTM [8]) | Activity (HTM [9]) | inhibition (HTM [10]) | Activity (HTM [12]) | inhibition (HTM [13]) | Activity [14] | inhibition (HTM [16]) | Activity (Oryctolagus cuniculus [17]) [mmHg] | Activity (HTM [18]) | Activity (HTM [20]) | Activity [21] | further results
7.33 | 7.47 | inactive | c1cc(-c2cc(C3CCNCC3)n[nH]2)c2cc[nH]c2n1 | 5 | 36.77 | Active | Active | Active | 2.56 | Active | Active | Active | Active | inactive | Non-toxic | Active | 9.38 | Minimal_effect; Compound Induced Minimal Changes In Cell Morphology | Active | Non-toxic | pIC50 [7]: 7.33; inhibition [11]: 98%
 |  | inactive | C[C@H]1CNCCCN1S(=O)(=O)c1cccc2cncc(F)c12 |  | 39.46 | Active | Active |  |  |  |  | Active |  |  |  |  |  | Active |  |  | Activity (HTM [22]): Active; inhibition (HTM [23]): inactive
 |  | inactive | Cc1ccc(C(=O)OCc2ccc([C@@H](CN)C(=O)Nc3ccc4cnccc4c3)cc2)c(C)c1 | 3.55 | 43.02 | Active | Active |  | 4.7 |  |  | Active |  |  |  |  | 8.16 |  |  |  | Activity (HTM [22]): Active; inhibition (HTM [23]): Active; Activity [24]: Toxic; Activity [25]: 60%; Activity [26]: Toxic; Activity (HTM [27]): Active; Activity (HTM [28]): Active; Activity (Oryctolagus cuniculus [29]): 9.5 mmHg; Activity [30]: 80%
6.91 | 7.01 | Active | COc1cccc(CN2CCC(c3cc(-c4ccnc5[nH]ccc45)[nH]n3)CC2)c1 | 0.89 | 34.32 | Active | Active | Active | 0.22 | Active | Active | Active | Active | inactive | Non-toxic | Active |  | Minimal_effect; Compound Induced Minimal Changes In Cell Morphology | Active | Non-toxic | inhibition [31]: 64.7%; inhibition [32]: < 55%; inhibition [33]: < 55%; inhibition [34]: 89%; Activity (HTM [35]): Active; inhibition (Homo sapiens [36]): 70%; inhibition [37]: < 50%; inhibition (Homo sapiens [38]): < 50%; inhibition [39]: 85%; inhibition [40]: 61.6%; inhibition [41]: < 50%; Activity (Oryctolagus cuniculus [29]): 5.01 mmHg; Activity (HTM [42]): Active; inhibition [43]: < 55%
